For assay [1], the target named is T1, 5-Lipoxygenase (Homo sapiens, UniProt P09917).
T1 construct: Human heparinized whole blood was preincubated with test compounds or vehicle for 15 min; endogenous in cells; host or cells: heparinized human whole blood (blood cells stimulated with calcium ionophore A23187)
T1 sequence (P09917 1-674): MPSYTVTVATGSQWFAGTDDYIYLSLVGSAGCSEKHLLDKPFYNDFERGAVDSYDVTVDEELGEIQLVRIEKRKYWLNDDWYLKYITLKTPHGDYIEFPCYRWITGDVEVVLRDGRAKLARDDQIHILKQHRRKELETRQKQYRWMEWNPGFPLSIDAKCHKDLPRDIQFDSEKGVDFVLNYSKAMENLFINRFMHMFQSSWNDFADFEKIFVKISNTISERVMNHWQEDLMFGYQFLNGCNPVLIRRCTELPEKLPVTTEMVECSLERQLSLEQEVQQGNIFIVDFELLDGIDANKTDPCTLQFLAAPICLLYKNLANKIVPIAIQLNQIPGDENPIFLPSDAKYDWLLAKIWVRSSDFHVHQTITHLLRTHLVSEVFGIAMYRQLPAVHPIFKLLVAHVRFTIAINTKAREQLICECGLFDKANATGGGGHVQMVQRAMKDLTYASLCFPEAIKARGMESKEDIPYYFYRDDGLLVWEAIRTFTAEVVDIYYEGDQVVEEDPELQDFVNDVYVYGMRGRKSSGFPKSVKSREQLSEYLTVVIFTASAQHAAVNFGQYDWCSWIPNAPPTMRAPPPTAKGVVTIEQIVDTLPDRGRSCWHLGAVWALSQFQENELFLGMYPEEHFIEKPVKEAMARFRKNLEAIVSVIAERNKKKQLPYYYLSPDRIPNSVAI
In words: Inhibition of calcium ionophore-induced LTB4 biosynthesis in human whole blood (5-lipoxygenase inhibition). The format is cell-based. Conditions: human heparinized whole blood, A23187 8.3 μM; for IC50: 15 min preincubation at 37° C., 30 min, read-out: IC50, inhibition of 5-lipoxygenase from stimulated LTB4 formation in human whole blood; for percent inhibition of 5-lipoxygenase from stimulated LTB4 formation in human whole blood: @ 0.1 (column unit 10^-6 M). How it is done:
Inhibition of leukotriene biosynthesis was evaluated in an assay, involving calcium ionophore-induced LTB4 biosynthesis expressed human whole blood. […] The methanol extract was analyzed for LTB4 using a commercially available radioimmunoassay.

Assay [2] has as its system leukotriene biosynthesis. Briefly: Inhibition of leukotriene biosynthesis in vivo after oral administration, rat peritoneal anaphylaxis model. Conditions: at 30 μM/kg, gavage one hour prior to antigen challenge, peritoneal fluid 15 minutes after challenge. How it is done:
Inhibition of the biosynthesis of leukotrienes in vivo after oral administration of compound was determined using a rat peritoneal anaphylaxis model in a similar manner as that described by Yound and coworkers (Young, P. R.; Dyer, R. D.; Carter, G. W. Fed. Proc., Fed. Am. Soc. Exp. Biol. 1985, 44, 1185). In this model rats were injected intraperitoneally (ip) with rabbit antibody to bovine serum albumin (BSA) and three hours later injected ip with BSA to induce an antigen-antibody response. Rats were sacrificed 15 minutes after this challenge and the peritoneal fluids were collected and analyzed for leukotriene levels. Test compounds were administered by gavage one hour prior to the antigen challenge. Percent inhibition values were determined by comparing the treatment group to the mean of the control group.

Consider `NC(=O)N(O)C1CC(c2cccc(Oc3ccc(F)cc3)c2)C1` (single isomer, unassigned) [Example 1a, N-[3-(3-(4-fluorophenoxy)phenyl)-cyclobutyl]-N-hydroxyurea], for which the IC50 in assay [1] worked out at 130 nM. Further, the “Percent Inhibition of Leukotriene Biosynthesis” value in assay [2] was determined as 76%.
Consider `NC(=O)N(O)C1CC(c2cccc(Oc3ccc(F)cc3)c2)C1` (single isomer, unassigned) [Example 1b, N-[3-(3-(4-fluorophenoxy)phenyl)-cyclobutyl]-N-hydroxyurea], for which, in assay [1], the IC50 worked out at 160 nM. Also, the “Percent Inhibition of Leukotriene Biosynthesis” value in assay [2] was found to be 59%.
Turning to `NC(=O)N(O)C1CC(c2ccccc2)C1` (single isomer, unassigned) [Example 2a, N-[3-phenylcyclobutyl]-N-hydroxyurea], the IC50 in assay [1] is 330 nM. For the same compound, in assay [2], the “Percent Inhibition of Leukotriene Biosynthesis” value came to 51%.
Regarding `NC(=O)N(O)C1CC(c2ccccc2)C1` (single isomer, unassigned) [Example 2b, N-[3-phenylcyclobutyl]-N-hydroxyurea], in assay [1], the IC50 turned out to be 300 nM. The “Percent Inhibition of Leukotriene Biosynthesis” value in assay [2] is listed as 45%.
In the case of `NC(=O)N(O)C1CC(c2ccc(Oc3ccc(F)cc3)s2)C1` (single isomer, unassigned) [Example 3a, N-[3-(5-(4-fluorophenoxy)thien-2-yl)-cyclobutyl]-N-hydroxyurea], the “percent inhibition of 5-lipoxygenase from stimulated LTB4 formation in human whole blood” value in assay [1] worked out at 53%.
In the case of `NC(=O)N(O)C1CC(c2ccc(Oc3ccc(F)cc3)s2)C1` (single isomer, unassigned) [Example 3b, N-[3-(5-(4-fluorophenoxy)thien-2-yl)-cyclobutyl]-N-hydroxyurea], the “percent inhibition of 5-lipoxygenase from stimulated LTB4 formation in human whole blood” value in assay [1] was found to be 52%. Also, the “Percent Inhibition of Leukotriene Biosynthesis” value in assay [2] came out at 82%.
On to `COc1ccc2cc(C3CC(N(O)C(N)=O)C3)ccc2c1` (single isomer, unassigned) [Example 4a, N-[3-(6-methoxy-2-naphthyl)-cyclobutyl]-N-hydroxyurea], for which, in assay [1], the IC50 came out at 230 nM.
Consider `COc1ccc2cc(C3CC(N(O)C(N)=O)C3)ccc2c1` (single isomer, unassigned) [Example 4b, N-[3-(6-methoxy-2-naphthyl)-cyclobutyl]-N-hydroxyurea], for which, in assay [1], the IC50 worked out at 520 nM.
Consider `NC(=O)N(O)C1CC(c2ccc(-c3ccccc3)cc2)C1` (single isomer, unassigned) [Example 5a, N-[3-(4-biphenyl)-cyclobutyl]-N-hydroxyurea], for which the IC50 in assay [1] was determined as 90 nM.
Same read-out and setting: with `NC(=O)N(O)C1CC(c2ccc(-c3ccccc3)cc2)C1` (single isomer, unassigned) [Example 5b, N-[3-(4-biphenyl)-cyclobutyl]-N-hydroxyurea] the figure was 960 nM.
On to `COc1cccc(C2CC(N(O)C(C)=O)C2)c1` (single isomer, unassigned) [Example 6a, N-[3-(3-methoxyphenyl)cyclobutyl]-N-hydroxyacetamide], for which the IC50 in assay [1] was 510 nM.
In the case of `COc1cccc(C2CC(N(O)C(C)=O)C2)c1` (single isomer, unassigned) [Example 6b, N-[3-(3-methoxyphenyl)cyclobutyl]-N-hydroxyacetamide], the IC50 in assay [1] was determined as 1210 nM.

As a reminder, the IC50 is the point on the concentration scale where inhibition reaches its midpoint.

The values are drawn from US5187192A, “Cyclobutyl derivatives having lipoxygenase inhibitory activity” (Abbott Laboratories, priority 1992, dated 1993).
